Measured values: ChEMBL document CHEMBL3611975, “New carbocyclic N(6)-substituted adenine and pyrimidine nucleoside analogues with a bicyclo[2.2.1]heptane fragment as sugar moiety; synthesis, antiviral, anticancer activity and X-ray crystallography” (Bioorg Med Chem, 2015)

Legend:
[1] = tested on: HCT-15; test: Cytotoxicity against human HCT15 cells assessed as growth at 10^-5 M relative to control
[2] = tested on: SNB-19; test: Cytotoxicity against human SNB19 cells assessed as growth at 10^-5 M relative to control
[3] = tested on: NCI-H23; test: Cytotoxicity against human NCI-H23 cells assessed as growth at 10^-5 M relative to control
[4] = tested on: SN12C; test: Cytotoxicity against human SN12C cells assessed as growth at 10^-5 M relative to control
[5] = tested on: K562; test: Cytotoxicity against human K562 cells assessed as growth at 10^-5 M relative to control
[6] = tested on: LOX IMVI; test: Cytotoxicity against human LOXIMVI cells assessed as growth at 10^-5 M relative to control
[7] = tested on: NCI/ADR-RES; test: Cytotoxicity against human NCI/ADR-RES cells assessed as growth at 10^-5 M relative to control
[8] = tested on: T47D; test: Cytotoxicity against human T47D cells assessed as growth at 10^-5 M relative to control
[9] = tested on: Coxsackievirus B4; test: Antiviral activity against Human coxsackievirus B4 Powers infected in African green monkey Vero cells assessed as decrease in virus titer after 72 hrs by MTT assay; type: functional, organism-based; details: Enterovirus B
[10] = tested on: MDA-MB-231; test: Cytotoxicity against human MDA-MB-231 cells assessed as growth at 10^-5 M relative to control
[11] = tested on: HCC 2998; test: Cytotoxicity against human HCC2998 cells assessed as growth at 10^-5 M relative to control
[12] = tested on: Malme-3M; test: Cytotoxicity against human MALME-3M cells assessed as growth at 10^-5 M relative to control
[13] = Selectivity index, ratio of CTD50 for MDCK cells to EC50 for Influenza A virus (A/Puerto Rico/8/1934(H1N1)); type: toxicity, cell-based; details: dog
[14] = tested on: NCI-H322M; test: Cytotoxicity against human NCI-H322M cells assessed as growth at 10^-5 M relative to control
[15] = tested on: SR; test: Cytotoxicity against human SR cells assessed as growth at 10^-5 M relative to control
[16] = tested on: 786-0; test: Cytotoxicity against human 786-0 cells assessed as growth at 10^-5 M relative to control
[17] = tested on: HOP-62; test: Cytotoxicity against human HOP62 cells assessed as growth at 10^-5 M relative to control
[18] = tested on: SK-MEL-5; test: Cytotoxicity against human SK-MEL-5 cells assessed as growth at 10^-5 M relative to control
[19] = Cytotoxicity against MDCK cells assessed as cell viability after 48 hrs by MTT assay; type: cell-based, Canis lupus familiaris; details: dog, read-out: CTD50
[20] = tested on: PC-3; test: Cytotoxicity against human PC3 cells assessed as growth at 10^-5 M relative to control
[21] = tested on: UACC-62; test: Cytotoxicity against human UACC62 cells assessed as growth at 10^-5 M relative to control
[22] = tested on: Influenza A virus; test: Antiviral activity against Influenza A virus (A/Puerto Rico/8/1934(H1N1)) infected in MDCK cells assessed as decrease in virus titer after 48 hrs by MTT assay; type: functional, organism-based
[23] = tested on: MDA-MB-435; test: Cytotoxicity against human MDA-MB-435 cells assessed as growth at 10^-5 M relative to control
[24] = tested on: KM12; test: Cytotoxicity against human KM12 cells assessed as growth at 10^-5 M relative to control
[25] = tested on: RPMI-8226; test: Cytotoxicity against human RPMI8226 cells assessed as growth at 10^-5 M relative to control
[26] = tested on: ACHN; test: Cytotoxicity against human ACHN cells assessed as growth at 10^-5 M relative to control
[27] = tested on: MDA-MB-468; test: Cytotoxicity against human MDA-MB-468 cells assessed as growth at 10^-5 M relative to control
[28] = tested on: SK-MEL-28; test: Cytotoxicity against human SK-MEL-28 cells assessed as growth at 10^-5 M relative to control
[29] = tested on: OVCAR-4; test: Cytotoxicity against human OVCAR4 cells assessed as growth at 10^-5 M relative to control
[30] = tested on: A549; test: Cytotoxicity against human A549 cells assessed as growth at 10^-5 M relative to control
[31] = tested on: U-251; test: Cytotoxicity against human U251 cells assessed as growth at 10^-5 M relative to control
[32] = Selectivity index, ratio of CTD50 for African green monkey Vero cells to EC50 for Human coxsackievirus B4 Powers; type: toxicity, cell-based
[33] = Cytotoxicity against African green monkey Vero cells assessed as cell viability after 72 hrs by MTT assay; type: cell-based; details: chlorocebus sabaeus, read-out: CTD50
[34] = tested on: SF-539; test: Cytotoxicity against human SF539 cells assessed as growth at 10^-5 M relative to control
[35] = tested on: HL-60(TB); test: Cytotoxicity against human HL-60(TB) cells assessed as growth inhibition at 10^-5 M relative to control; type: functional; details: read-out: GI
[36] = tested on: SK-OV-3; test: Cytotoxicity against human SKOV3 cells assessed as growth at 10^-5 M relative to control
[37] = tested on: CCRF-CEM; test: Cytotoxicity against human CCRF-CEM cells assessed as growth at 10^-5 M relative to control
[38] = tested on: COLO 205; test: Cytotoxicity against human COLO205 cells assessed as growth at 10^-5 M relative to control
[39] = tested on: MOLT-4; test: Cytotoxicity against human MOLT4 cells assessed as growth at 10^-5 M relative to control
[40] = tested on: SK-MEL-2; test: Cytotoxicity against human SK-MEL-2 cells assessed as growth at 10^-5 M relative to control

| SMILES | growth, % of control at 10 µM [1] [%] | growth, % of control at 10 µM [2] [%] | growth, % of control at 10 µM [3] [%] | growth, % of control at 10 µM [4] [%] | growth, % of control at 10 µM [5] [%] | growth, % of control at 10 µM [6] [%] | growth, % of control at 10 µM [7] [%] | growth, % of control at 10 µM [8] [%] | EC50 [9] [µM] | growth, % of control at 10 µM [10] [%] | growth, % of control at 10 µM [11] [%] | growth, % of control at 10 µM [12] [%] | selectivity ratio [13] | growth, % of control at 10 µM [14] [%] | growth, % of control at 10 µM [15] [%] | growth, % of control at 10 µM [16] [%] | growth, % of control at 10 µM [17] [%] | growth, % of control at 10 µM [18] [%] | CC50 at 48 h [19] [µM] | growth, % of control at 10 µM [20] [%] | further results |
| --- | --- | --- | --- | --- | --- | --- | --- | --- | --- | --- | --- | --- | --- | --- | --- | --- | --- | --- | --- | --- | --- |
| OC[C@H]1[C@@H]2C[C@H](n3cnc4c(NCCc5ccccc5)ncnc43)[C@H]1C[C@@H]2Cl | 81.7 | 107 | 93.2 | 99.9 | 91.1 | 92.7 | 88.2 | 86.8 | 4 | 104 | 89.8 | 102 | 10 | 99.5 | 84.1 | 97 | 94.2 | 73.9 | 143 | 89.1 | growth, % of control at 10 µM [21]: 93.1%; EC50 [22]: 15 µM; growth, % of control at 10 µM [23]: 99.7%; growth, % of control at 10 µM [24]: 102%; growth, % of control at 10 µM [25]: 87.9%; growth, % of control at 10 µM [26]: 97.8%; growth, % of control at 10 µM [27]: 89.4%; growth, % of control at 10 µM [28]: 107%; growth, % of control at 10 µM [29]: 93.6%; growth, % of control at 10 µM [30]: 92.6%; growth, % of control at 10 µM [31]: 103%; selectivity ratio [32]: 3; CC50 at 72 h [33]: 14 µM; growth, % of control at 10 µM [34]: 98.2%; inhibition of growth at 10 µM [35]: 120%; growth, % of control at 10 µM [36]: 103%; growth, % of control at 10 µM [37]: 87.6%; growth, % of control at 10 µM [38]: 99.3%; growth, % of control at 10 µM [39]: 83.3%; growth, % of control at 10 µM [40]: 97.2% |
| COc1ccc(CCNc2ncnc3c2ncn3[C@H]2C[C@H]3[C@H](CO)[C@@H]2C[C@@H]3Cl)cc1 | 95.5 | 107 | 102 | 102 | 82.8 | 96.7 | 86.5 | 66.1 | > 9 | 100 | 97.2 | 98.2 | 22 | 89.2 | 86.7 | 101 | 107 | 87 | 350 | 102 | growth, % of control at 10 µM [21]: 99.6%; EC50 [22]: 16 µM; growth, % of control at 10 µM [23]: 114%; growth, % of control at 10 µM [24]: 97%; growth, % of control at 10 µM [25]: 82.5%; growth, % of control at 10 µM [26]: 97.7%; growth, % of control at 10 µM [27]: 101%; growth, % of control at 10 µM [28]: 104%; growth, % of control at 10 µM [29]: 94.3%; growth, % of control at 10 µM [30]: 83.3%; growth, % of control at 10 µM [31]: 105%; selectivity ratio [32]: 1; CC50 at 72 h [33]: 14 µM; growth, % of control at 10 µM [34]: 95.1%; inhibition of growth at 10 µM [35]: 94.7%; growth, % of control at 10 µM [36]: 106%; growth, % of control at 10 µM [37]: 108%; growth, % of control at 10 µM [38]: 113%; growth, % of control at 10 µM [39]: 103%; growth, % of control at 10 µM [40]: 101% |
| CCOc1ncnc2c1ncn2[C@H]1C[C@H]2[C@H](CO)[C@@H]1C[C@@H]2Cl | 95.7 | 115 | 87.9 | 108 | 101 | 90.9 | 90.8 | 103 | > 102 | 97.9 | 98.9 | 96 | > 5 | 89.9 | 97.5 | 108 | 106 | 100 | > 1020 | 104 | growth, % of control at 10 µM [21]: 104%; EC50 [22]: 225 µM; growth, % of control at 10 µM [23]: 106%; growth, % of control at 10 µM [24]: 101%; growth, % of control at 10 µM [25]: 121%; growth, % of control at 10 µM [26]: 99%; growth, % of control at 10 µM [27]: 98.6%; growth, % of control at 10 µM [28]: 100%; growth, % of control at 10 µM [29]: 108%; growth, % of control at 10 µM [30]: 99%; growth, % of control at 10 µM [31]: 102%; selectivity ratio [32]: 2; CC50 at 72 h [33]: 208 µM; growth, % of control at 10 µM [34]: 102%; inhibition of growth at 10 µM [35]: 95.4%; growth, % of control at 10 µM [36]: 128%; growth, % of control at 10 µM [37]: 129%; growth, % of control at 10 µM [38]: 119%; growth, % of control at 10 µM [39]: 111%; growth, % of control at 10 µM [40]: 108% |
